From ChEMBL document CHEMBL1201862, “PubChem BioAssay data set” (2004)
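Each compound was tested at five concentrations against cells in 96-well plates for 48 hours. Abbreviation: GI50, concentration required for 50% inhibition of growth.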 Activity calls are given as the source filed them. Rule as the data show it: active = GI50 up to about 1.1 µM and inactive = higher.

Legend:
Assay in all cases: DTP human tumour cell line panel, 48 h
[1] = test system: SNB-75
[2] = test system: SW-620
[3] = test system: M14
[4] = test system: NCI-H460
[5] = test system: IGROV-1
[6] = test system: HCT-116
[7] = test system: SF-268
[8] = test system: UO-31
[9] = test system: A498
[10] = test system: SN12C
[11] = test system: SNB-19
[12] = test system: U-251
[13] = test system: SK-OV-3
[14] = test system: SR
[15] = test system: BT-549
[16] = test system: MDA-MB-435
[17] = test system: PC-3
[18] = test system: T47D
[19] = test system: MCF7

Measured: GI50

CC1(C)NC(=O)N(CCCCCCN2C(=O)NC(C)(C)C2=O)C1=O
inactive: [1] > 100 µM | [2] > 100 µM | [3] > 100 µM | [4] > 100 µM | [5] > 100 µM | [6] > 100 µM | [7] > 100 µM | [8] > 100 µM | [9] > 100 µM | [10] > 100 µM | [11] 97.9 µM | [12] > 100 µM | [13] > 100 µM

C=C(C)C1CC2C(C)=C(OC(C)=O)C1n1c(=O)c3cc4ccccc4cc3c(=O)n12 (stereo not drawn)
inactive: [1] 42 µM | [14] 36 µM | [2] > 71.4 µM | [3] > 100 µM | [4] 62.5 µM | [5] > 77.1 µM | [6] > 76.7 µM | [7] 81.3 µM | [8] > 83 µM | [9] > 84.5 µM | [10] 98.2 µM | [11] > 100 µM | [12] 63.1 µM | [13] > 100 µM

O=C(CO)CC(=O)C(=O)Nc1ccccc1
inactive: [14] > 100 µM | [2] > 100 µM | [3] > 100 µM | [4] > 100 µM | [5] > 100 µM | [6] > 100 µM | [7] > 100 µM | [8] > 100 µM | [10] > 100 µM | [11] > 100 µM | [12] > 100 µM | [13] > 100 µM

CCCCCCCCCCCCCCCC(=O)OCC1OC(n2cc(F)c(=O)[nH]c2=O)C(NC(=O)OCc2ccccc2)C(O)C1O (stereo not drawn)
inactive: [1] 19.8 µM | [2] 26.9 µM | [3] 17 µM | [4] 19.2 µM | [5] 20.9 µM | [6] 16.6 µM | [7] 23.4 µM | [8] 19.5 µM | [9] 18.8 µM | [10] 19.9 µM | [11] 16.8 µM | [12] 15.9 µM | [13] 24.1 µM

CCOC(=O)C1(C)CCC(C(=O)OC)C1=O (stereo not drawn)
inactive: [1] > 100 µM | [14] 24.6 µM | [3] > 100 µM | [4] 15.3 µM | [5] > 100 µM | [6] 57 µM | [7] > 100 µM | [8] > 100 µM | [9] > 100 µM | [10] 42.9 µM | [11] > 100 µM | [12] 67.1 µM | [13] > 100 µM

O=C(O)c1nc2ccc(C(F)(F)F)cc2nc1NCc1ccc(Cl)c(Cl)c1
inactive: [1] 20.7 µM | [14] 15.6 µM | [2] 19.4 µM | [15] 17.5 µM | [3] 17.8 µM | [4] 16 µM | [5] 13.9 µM | [6] 16.2 µM | [16] 15.6 µM | [8] 13.4 µM | [9] 17.5 µM | [10] 15.5 µM | [17] 15.3 µM | [11] 12.6 µM | [18] 16.6 µM | [12] 13.8 µM | [19] 17.8 µM | [13] 19.4 µM

O=C1C2Cc3ccccc3CN2C(=O)N1CCN1CCCC1 (stereo not drawn)
inactive: [2] > 100 µM | [3] > 100 µM | [4] > 100 µM | [5] > 100 µM | [7] > 100 µM | [8] > 100 µM | [9] > 100 µM | [10] > 100 µM | [11] > 100 µM | [12] > 100 µM

COc1cc(/C=C/C(=N\NC(=O)c2ccccc2)c2sc(Nc3ccc(Cl)c(Cl)c3)nc2C)ccc1O
inactive: [1] 33.3 µM | [14] 22.3 µM | [2] 40.4 µM | [3] 31 µM | [4] 31.3 µM | [5] 35.6 µM | [6] 28.2 µM | [7] 38.6 µM | [8] 28.8 µM | [10] 33 µM | [11] 31.6 µM | [12] 31.9 µM | [13] 70.3 µM

O=c1/c(=C/c2ccc3c(c2)OCO3)sc2nnc(-c3ccco3)n12
inactive: [1] 28.2 µM | [2] > 100 µM | [3] > 100 µM | [4] > 100 µM | [5] > 100 µM | [6] > 100 µM | [7] > 100 µM | [8] > 100 µM | [9] > 100 µM | [10] > 100 µM | [11] > 100 µM | [12] > 100 µM | [13] > 100 µM

Brc1ccc(-c2nnc(-c3nn(-c4ccccc4)c4nc5ccccc5nc34)o2)cc1
inactive: [1] > 100 µM | [14] 27.8 µM | [2] > 100 µM | [3] > 100 µM | [4] > 100 µM | [5] > 100 µM | [6] 27.8 µM | [7] > 100 µM | [8] > 100 µM | [10] > 100 µM | [11] > 100 µM | [12] > 100 µM | [13] > 100 µM

CSc1nc(C)cc(=O)n1C1OC(COC(C)=O)C(OC(C)=O)C(OC(C)=O)C1OC(C)=O (stereo not drawn)
inactive: [1] 61.5 µM | [14] > 100 µM | [2] > 100 µM | [3] > 100 µM | [4] > 100 µM | [5] > 100 µM | [6] > 100 µM | [7] > 100 µM | [8] > 100 µM | [9] > 100 µM | [10] > 100 µM | [11] > 100 µM | [12] > 100 µM | [13] > 100 µM

COc1ccc(C[P+]2(c3ccccc3)CCCCC2)cc1.O=[N+]([O-])c1ccc(C[P+]2(c3ccccc3)CCCCC2)cc1.[O-][Cl+3]([O-])([O-])[O-].[O-][Cl+3]([O-])([O-])[O-]
inactive: [1] > 100 µM | [2] 94.6 µM | [3] 66.2 µM | [4] 71.6 µM | [5] 47.6 µM | [7] > 100 µM | [8] > 100 µM | [9] > 100 µM | [10] 70 µM | [11] 89.7 µM | [12] > 100 µM | [13] > 100 µM

Clc1ccc2c(c1)C1C(CO2)C(c2ccccc2)=NN1c1ccccc1 (stereo not drawn)
inactive: [1] 20.1 µM | [2] 39.7 µM | [4] 36.2 µM | [5] 22.9 µM | [6] 16.1 µM | [7] 42.5 µM | [8] 15 µM | [9] > 100 µM | [11] 34.5 µM | [12] 34.8 µM | [13] > 100 µM

Cc1n[nH]c(=O)n1/N=C/c1ccc(Cl)cc1
inactive: [1] 41.2 µM | [14] 34.4 µM | [2] 68.7 µM | [15] 23.1 µM | [3] > 100 µM | [4] 59.7 µM | [6] 64.4 µM | [7] 44.9 µM | [16] > 100 µM | [8] 61.1 µM | [9] 40 µM | [10] 70.6 µM | [11] 61.9 µM | [18] 35.6 µM | [13] 83.4 µM

O=[N+]([O-])c1cc(Cl)ccc1S(=O)(=O)c1ccc(Cl)cc1[N+](=O)[O-]
inactive: [1] 15.7 µM | [14] 4.19 µM | [2] 18.5 µM | [3] 16.7 µM | [4] 16.1 µM | [5] 15.9 µM | [6] 15.7 µM | [7] 15 µM | [8] 17.1 µM | [10] 15.7 µM | [11] 17.4 µM | [12] 19.8 µM | [13] 15.8 µM

O=C(CCC(=O)Nc1ccc(Cl)c(Cl)c1)CC(=O)c1ccc(F)cc1
inactive: [14] > 100 µM | [2] > 100 µM | [3] > 100 µM | [4] > 100 µM | [5] > 100 µM | [6] > 100 µM | [7] > 100 µM | [8] > 100 µM | [10] > 100 µM | [11] > 100 µM | [12] > 100 µM | [13] > 100 µM

CCCCCCCCCC1CC(=O)Oc2cccc(O)c21 (stereo not drawn)
inactive: [1] 40 µM | [14] 23.2 µM | [2] 29.2 µM | [3] 22.7 µM | [4] 9.91 µM | [5] 20.9 µM | [6] 36.2 µM | [7] 30.3 µM | [8] 19.5 µM | [9] 22.1 µM | [10] 6.85 µM | [11] 3.7 µM | [12] 2.72 µM | [13] 7.69 µM

COc1cc2c(cc1O)CC13CCC(=O)N1CCc1cc(OC)c(O)c-2c13 (stereo not drawn)
inactive: [1] > 68.1 µM | [14] > 68.1 µM | [2] > 68.1 µM | [3] > 68.1 µM | [4] > 68.1 µM | [5] > 68.1 µM | [6] > 68.1 µM | [7] > 68.1 µM | [8] > 68.1 µM | [9] > 68.1 µM | [10] > 68.1 µM | [11] > 68.1 µM

COc1ccc(/C=C/CO)cc1OC
inactive: [1] > 100 µM | [14] > 100 µM | [2] > 100 µM | [5] > 100 µM | [7] > 100 µM | [8] > 100 µM | [10] > 100 µM | [11] > 100 µM | [12] > 100 µM | [13] > 100 µM

O=C1CCC(O)=C1O
inactive: [1] > 100 µM | [2] > 100 µM | [3] > 100 µM | [4] > 100 µM | [5] > 100 µM | [6] > 100 µM | [7] > 100 µM | [9] > 100 µM | [10] > 100 µM | [11] > 100 µM | [12] > 100 µM | [13] > 100 µM

NCCOCCOCC(=O)O
inactive: [1] > 100 µM | [14] > 100 µM | [2] > 100 µM | [5] > 100 µM | [6] > 100 µM | [7] > 100 µM | [8] > 100 µM | [10] > 100 µM | [11] > 100 µM | [12] > 100 µM | [13] > 100 µM
